Results from PubChem BioAssay (NCI).
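All cell lines were grown in 96-well plates and treated with compound for 48 hours. GI50 is the concentration that inhibits growth by half. The concentration for full growth arrest is given as TGI.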

What was measured:
Assay in all cases: DTP human tumour cell line panel, 48 h
IGROV1 ovarian = test system: IGROV1 ovarian
MALME-3M melanoma = test system: MALME-3M melanoma
SK-MEL-5 melanoma = test system: SK-MEL-5 melanoma
SNB-75 CNS = test system: SNB-75 CNS
OVCAR-5 ovarian = test system: OVCAR-5 ovarian
NCI-H23 lung = test system: NCI-H23 lung
UACC-62 melanoma = test system: UACC-62 melanoma
HT29 colon = test system: HT29 colon
UO-31 renal = test system: UO-31 renal
SR leukemia = test system: SR leukemia

Compound	TGI (IGROV1 ovarian) [µM]	TGI (MALME-3M melanoma) [µM]	TGI (SK-MEL-5 melanoma) [µM]	TGI (SNB-75 CNS) [µM]	TGI (OVCAR-5 ovarian) [µM]	TGI (NCI-H23 lung) [µM]	TGI (UACC-62 melanoma) [µM]	TGI (HT29 colon) [µM]	TGI (UO-31 renal) [µM]	TGI (SR leukemia) [µM]	GI50 (IGROV1 ovarian) [µM]	GI50 (MALME-3M melanoma) [µM]	GI50 (SK-MEL-5 melanoma) [µM]	GI50 (SNB-75 CNS) [µM]	GI50 (OVCAR-5 ovarian) [µM]	GI50 (NCI-H23 lung) [µM]	GI50 (UACC-62 melanoma) [µM]	GI50 (HT29 colon) [µM]	GI50 (UO-31 renal) [µM]	GI50 (SR leukemia) [µM]
Cc1c(/C=N/N=C/c2[nH]c(C(=O)OC(C)(C)C)c(C)c2C)[nH]c(C(=O)OC(C)(C)C)c1C	> 100	> 100	> 100	88.1	> 100	> 100	> 100	> 100	> 100	> 100	–	–	–	–	–	–	–	–	–	–
CNCCCNCCCCNCCCN1C(=O)c2ccc3c4c(ccc(c24)C1=O)C(=O)N(CCCNCc1ccccc1OC)C3=O	19	3.05	3	13.3	26.9	19.1	5.06	16.4	36.8	43.9	3.02	0.939	0.813	1.05	5.35	2.99	0.711	3.36	4.31	4.42
COc1ccc2cc1Oc1ccc(cc1)C[C@H]1c3c(cc4c(c3Oc3cc5c(cc3OC)CCN(C)[C@@H]5C2)OCO4)CCN1C	12.9	3.01	1.43	11.4	13.5	13.5	6.16	2.56	11.7	2.87	5.42	1.18	0.763	5.27	6.65	5.44	1.81	0.237	5.41	0.908
COc1ccc(-c2cc(-c3ccc(C)cc3)nc3nc(=S)[nH]c(N)c23)cc1	78.4	43.3	29.6	> 100	96.9	60.2	45.6	> 100	48	55.8	28.2	26.7	14.1	66.2	39.3	21.9	20.6	19.1	19.2	24.6
COc1ccc2c(c1)N(CCO)C1=C(C(=O)OC1)C2c1cccc(F)c1 (centres undefined)	> 50	> 50	> 11.4	13.6	> 50	> 50	> 50	> 19.8	> 50	> 50	0.433	0.391	0.456	0.186	2.07	1.8	0.203	0.23	0.413	0.195
CN1CCN(C(=O)c2cc(-c3ccc4ncnc(N5CCc6cc(F)c(Cl)cc65)c4c3)cnc2N)CC1	0.595	0.843	0.476	0.704	13.8	5.66	0.67	4.57	4.42	–	0.0467	0.123	0.209	0.0512	0.29	0.31	0.177	0.216	0.0996	0.137
O=C(O)c1ccc(C(=O)c2ccccc2)c(C(=O)O)c1	> 100	> 100	> 100	> 100	> 100	> 100	> 100	> 100	> 100	> 100	–	–	–	–	–	–	–	–	–	–
CC(=O)/C=C/c1cn(C(=O)OC(C)(C)C)c2ccc(Br)cc12	39.5	> 89.2	32.9	39.3	53.9	42	> 85.7	24.8	51.9	> 100	15.9	52.1	13.6	14.4	25.6	19.8	20.6	10.6	10.3	71.6
COc1cc2c(cc1OCCCn1c(-c3ccccn3)nc3ccccc31)N=C[C@@H]1CCCN1C2=O	4.89	11	2.96	5.73	9.34	3.77	3.04	> 79.6	2.59	> 20.1	1.96	5.32	1.57	1.72	3.41	1.08	1.48	3.61	0.474	2.82
Cc1cccc(C)c1NC(=O)/C(=N/NC(N)=S)C(C)C(=O)c1ccc(Cl)cc1 (centres undefined)	> 100	> 100	> 100	> 100	> 100	> 100	> 100	> 100	> 100	> 100	–	–	–	–	–	–	–	–	–	–
O=C1c2c(c3c4ccccc4[nH]c3c3ccc4ccccc4c23)C(=O)N1CCN1CCNCC1	2.84	3.18	3.31	2.82	3.12	3.7	3.77	3.27	2.53	2.63	1.46	1.57	1.78	1.47	1.72	1.84	1.86	1.72	1.24	0.598
CCc1ccc2c(c1)N(CCO)C1=C(C(=O)OC1)C2c1cccc(Br)c1 (centres undefined)	25.9	25.6	8.67	8.3	20.8	15.6	16.7	4.36	18.1	20.3	2.56	2.58	0.256	0.307	4.37	0.66	0.518	0.342	1.05	0.409
O=S(=O)(Nc1cc(Sc2cccc3cccnc23)c(O)c2ccccc12)c1ccc(F)cc1	4.2	4.94	3.16	15.2	10.6	4.32	4.39	6.59	4.75	7.63	1.06	1.98	1.66	3.68	2.63	1.46	1.85	1.84	1.09	0.465
